Patent publication US10640545B2 (THE GOVERNORS OF THE UNIVERSITY OF ALBERTA, priority 2017, dated 2020)
Where a SMILES comes first, the peptide text is derived from it. [ ]: non-standard residue; d: D form. Phe(4-Br) = N[C@@H](Cc1ccc(Br)cc1)C(=O)O; NMeL = CN[C@@H](CC(C)C)C(=O)O; Nle = CCCC[C@H](N)C(=O)O; Aib = CC(C)(N)C(=O)O

Experiments:
Type in all cases: in vivo
anesthetized mice = assay: Blood pressure assay in anesthetized mice; details: 1.4 μM/kg body weight injected, SBP, DBP, MABP
How it was run: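 Mice were anaesthetized with 1.5% isoflurane/oxygen and kept at 36 °C. Peptide (1.4 μM/kg body weight) or saline was injected via the right jugular vein. Arterial pressure and heart rate were recorded continuously through a catheter in the aorta via the right carotid artery over 60 min and reported as SBP, DBP, MABP and HR.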

C57BL/6 mice = assay: Cardiac allograft vasculopathy, heterotopic heart transplant; details: male hearts into female B6 mice, 3 mg/kg/d intraperitoneal for 4 weeks from 2 weeks after transplant
Experimental: B6 male hearts were transplanted heterotopically into […] female B6 of the recipient mice, starting 2 weeks after transplant. Synthesized apelin peptide (Apelin-NMe17A2) (11), was given by daily intraperitoneal injection (3 mg/kg/d) for 4 weeks. Female mice raise immune response against the male HY antigen, injure the coronary arteries of the transplanted heart based on Verhoeff-Van Gieson staining (FIG. 17) leading to progressive expansion of the arterial intima occluding the arterial lumen (FIG. 18).
C57BL/6J mice were purchased from Jackson Laboratories. The C57BL/6 mice subjected to surgery were 11-14 weeks old. All animal experiments were carried out according to the Canadian Council on Animal Care Guidelines. Animal protocols were approved by the Animal Care and Use Committee at the University of Alberta. Hearts from 12-14 weeks male wild-type (WT) donors were transplanted heterotopically to the abdomen of the female WT recipients. […] Cardiac allograft vasculopathy (CAV) was induced due to the presence of HY-minor histocompatibility antigen-directed, cell-mediated allo-immune response against the male donor hearts. The heart grafts were harvested six weeks after transplantation. Intima area, endothelial loss in medium to large-sized arteries, inflammatory cellular infiltration, microvasculature density and tip cell markers using Immunohistochemistry and qPCR were characterized.

Ldlr^−/− mice = assay: Angiotensin II-induced abdominal aortic aneurysm
Experimental: Experimental Animals and Protocols. Male LDL receptor deficient (Ldlr^−/−) mice were generated and bred in C57BL/6 background. All animal experiments were carried out in accordance with the Canadian Council on Animal Care Guidelines, and animal protocols were reviewed and approved by the Animal Care and Use Committee at the University of Alberta.
Alzet micro-osmotic pump (model 1002 or 1004; Durect Co.) was implanted subcutaneously at the dorsum of the neck to infuse Ang II (1.5 mg/kg^−1d^−1) or vehicle (saline) for 28 days in high fat fed Ldlr^−/− mice.
After 4 weeks of Ang II or saline infusion, mice underwent whole body perfuse-fixation, via the left ventricle, with 10% buffered formalin (80 mmHg, 20 min). […] Collagen positive area was quantified by the morphometric analysis using the Metamorph Basic (version 7.7.0.0) software. In situ DNA fragmentation was detected in 5-μm thick FFPE sections of aorta using the commercially available terminal deoxynucleotidyl transferase-mediated dUTP nick-end labeling (TUNEL) assay kit according to manufacturer's instructions (Invitrogen) as previously described. […] Thickness of the medial layer of the aorta was measured in calibrated images as the mean distance between the external elastin lamella and the internal elastin lamella from 8 randomly selected fields of the cross-section of an aorta using the Metamorph Basic software (version 7.7.0). […]

Structure (SMILES): CCCC[C@H](NC(=O)[C@@H]1CCCN1C(=O)CNC(=O)[C@H](CCCCN)NC(=O)[C@H](Cc1c[nH]cn1)NC(=O)[C@H](CO)NC(=O)[C@H](CC(C)C)N(C)C(=O)[C@H](CCCNC(=N)N)NC(=O)[C@@H]1CCCN1C(=O)[C@H](CCCNC(=N)N)NC(=O)[C@H](CCC(N)=O)NC(=O)[C@H](CCCNC(=N)N)NC(=O)[C@H](CCCNC(=N)N)NC(=O)[C@H](Cc1ccccc1)NC(=O)[C@@H](N)CCCCN)C(=O)NC(C)(C)C(=O)N[C@@H](Cc1ccc(Br)cc1)C(=O)O [Peptide 11] (H-KFRRQRPR[NMeL]SHKGP[Nle][Aib][Phe(4-Br)]-OH; C-terminus assumed)
- blood pressure lowering (hypotensive) effect (anesthetized mice): potent hypotensive activity that rivaled or bested that of native 2 or A2 variant 5
- transplant arteriopathy (intima/lumen of coronary arteries) (C57BL/6 mice): mitigates arteriopathy
- oxidative stress (DHE fluorescence and NADPH oxidase activity) (Ldlr^−/− mice; aorta of Ldlr^−/− mice, Ang II + peptide): suppression of oxidative stress
- formation of abdominal aortic aneurysm (Ldlr^−/− mice; high fat fed Ldlr^−/− mice, Ang II 1.5 mg/kg/d 28 days, peptide 3 mg/kg/d intraperitoneal 28 days): markedly prevented the formation of abdominal aortic aneurysm
